Assay results: patent US8354414B2, “Substituted bicyclic pyrimidines” (Cephalon, Inc, priority 2006, dated 2013)
Where two headings read alike, the source gives them in different places.

Columns and labels:
[1] = target: T1, CDK5/GST-p25 (Homo sapiens, UniProt Q00535); experiment: Inhibition of CDK5/GST-p25 kinase activity (ELISA with time-resolved fluorescence readout); format: biochemical
T1 construct: The final construct, encoding for full-length human CDK5; made in house; host or cells: Sf21 insect cells (baculovirus co-infection)
T1 sequence (Q00535 whole entry): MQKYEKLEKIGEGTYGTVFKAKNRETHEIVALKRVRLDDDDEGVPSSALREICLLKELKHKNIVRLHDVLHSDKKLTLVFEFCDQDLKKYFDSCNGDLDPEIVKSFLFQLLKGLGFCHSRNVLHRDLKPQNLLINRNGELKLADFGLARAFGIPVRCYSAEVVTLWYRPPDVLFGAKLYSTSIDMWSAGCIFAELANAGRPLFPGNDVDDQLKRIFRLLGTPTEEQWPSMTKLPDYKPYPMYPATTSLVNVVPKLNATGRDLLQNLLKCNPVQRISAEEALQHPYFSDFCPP
T1 sequence (Q15078 108-307 partner limits assumed): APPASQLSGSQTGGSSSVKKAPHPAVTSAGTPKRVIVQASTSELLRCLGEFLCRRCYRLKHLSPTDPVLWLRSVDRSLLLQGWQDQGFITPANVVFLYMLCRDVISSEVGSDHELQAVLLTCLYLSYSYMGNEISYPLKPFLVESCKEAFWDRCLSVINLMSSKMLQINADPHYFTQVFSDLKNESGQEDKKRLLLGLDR
How it was run: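 The substrate, GST-Rb(773-928), was immobilised on plates and phosphorylated for 20 min at 37 °C by 2 ng/ml CDK5/GST-p25 in HEPES pH 7.2 with 10 µM ATP and 10 mM MgCl2. Both proteins were human and co-expressed in insect cells. Ser-780 phosphorylation was read by europium time-resolved fluorescence and converted to IC50.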

[2] = target: T2, His6-GSK-3β (Homo sapiens, UniProt P49841); experiment: Inhibition of His6-GSK-3β kinase activity (ELISA-based format, time-resolved fluorescence readout); format: biochemical; conditions: read-out: GSK3β IC50
T2 construct: made in house; host or cells: Sf21 insect cells (baculovirus)
T2 sequence (P49841 2-419): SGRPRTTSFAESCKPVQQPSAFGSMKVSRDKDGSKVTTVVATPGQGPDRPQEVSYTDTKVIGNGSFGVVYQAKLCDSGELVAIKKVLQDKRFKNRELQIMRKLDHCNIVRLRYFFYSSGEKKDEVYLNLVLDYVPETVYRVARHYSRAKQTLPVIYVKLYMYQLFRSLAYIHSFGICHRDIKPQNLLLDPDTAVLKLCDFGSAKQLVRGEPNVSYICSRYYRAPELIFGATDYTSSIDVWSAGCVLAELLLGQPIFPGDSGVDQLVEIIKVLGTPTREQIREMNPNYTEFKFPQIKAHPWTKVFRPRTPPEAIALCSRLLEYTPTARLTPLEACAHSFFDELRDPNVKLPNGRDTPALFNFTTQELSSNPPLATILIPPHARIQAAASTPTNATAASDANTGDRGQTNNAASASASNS
How it was run: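 Plate-bound recombinant GST-Rb substrate was phosphorylated for 30 min at 37° C by baculovirus-expressed His6-GSK-3β (200 ng/ml) at 20 μM ATP, 10 mM MgCl2, 2.5% DMSO. Europium time-resolved fluorescence of anti-phospho-Ser780 Rb signal gave inhibition, fitted to IC50.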

| Structure (SMILES) | IC50 ([1]; class symbols) | IC50 ([2]; class symbols) | melting point | IC50 ([1]; numeric bounds) | IC50 ([2]; numeric bounds) | inhibition at 10 µM [1] |
| --- | --- | --- | --- | --- | --- | --- |
| Cn1ncc2c(C3C(=O)Nc4ccc(C#N)cc43)ncnc21 (stereo not drawn) [Example 108, 3-(1-methyl-1H-pyrazolo[3,4-d]pyrimidin-4-yl)-2-oxo-2,3-dihydro-1H-indole-5-carbonitrile] | < 300 nM | > 10000 nM | > 300 °C (dec.) | – | – | – |
| CC(=O)NCCNc1nc(C2C(=O)Nc3ccccc32)c2cn(C3CCCC3)nc2n1 (stereo not drawn) [Example 158, 3-(2-cyclopentyl-6-(2-acetylamino-ethylamino)-2H-pyrazolo[3,4-d]pyrimidin-4-yl)-1,3-dihydro-indol-2-one] | – | 300 to 3000 nM | 238 to 240 °C | > 3000 nM | – | – |
| O=C1Nc2ccc(Cl)cc2C1c1ncnc2c1cnn2C1CCCCC1 (stereo not drawn) [Example 74, 5-Chloro-3-(1-Cyclohexyl-1H-pyrazolo[3,4-d]pyrimidin-4-yl)-1,3-dihydro-indol-2-one] | > 10000 nM | > 10000 nM | 300 to 305 °C | – | – | – |
| CC(C)Cn1cc2c(C3C(=O)Nc4ccc(Cl)cc43)nc(Cl)nc2n1 (stereo not drawn) [Example 261, 5-Chloro-3-(6-chloro-2-isobutyl-2H-pyrazolo[3,4-d]pyrimidin-4-yl)-1,3-dihydro-indol-2-one] | > 10000 nM | – | 284 °C (dec.) | – | > 3000 nM | – |
| CCCn1ncc2c(C3C(=O)Nc4ccc(C#N)cc43)ncnc21 (stereo not drawn) [Example 93, 3-(1-propyl-1H-pyrazolo[3,4-d]pyrimidin-4-yl)-2-oxo-2,3-dihydro-1H-indole-5-carbonitrile] | > 10000 nM | > 10000 nM | > 300 °C | – | – | – |
| O=C1Nc2cc(Cl)ccc2C1c1ncnc2c1cnn2C1CCCC1 (stereo not drawn) [Example 59, 6-Chloro-3-(1-cyclopentyl-1H-pyrazolo[3,4-d]pyrimidin-4-yl)-1,3-dihydro-indol-2-one] | > 10000 nM | 300 to 3000 nM | 288 to 291 °C | – | – | – |
| O=C1Nc2ccc(F)cc2C1c1ncnc2c1cnn2C1CCCCC1 (stereo not drawn) [Example 72, 3-(1-Cyclohexyl-1H-pyrazolo[3,4-d]pyrimidin-4-yl)-5-fluoro-1,3-dihydro-indol-2-one] | > 10000 nM | > 10000 nM | 282 to 286 °C | – | – | – |
| N#Cc1ccc2c(c1)NC(=O)C2c1ncnc2nn(C3CCCC3)cc12 (stereo not drawn) [Example 38, 3-(2-Cyclopentyl-2H-pyrazolo [3,4-d]pyrimidin-4-yl)-2-oxo-2,3-dihydro-1H-indole-6-carbonitrile] | > 10000 nM | > 10000 nM | 340 to 344 °C | – | – | – |
| Cn1ncc2c(C3C(=O)Nc4ccc(Br)cc43)ncnc21 (stereo not drawn) [Example 85, 5-Bromo-3-(1-methyl-1H-pyrazolo[3,4-d]pyrimidin-4-yl)-1,3-dihydro-indol-2-one] | < 300 nM | – | > 350 °C | – | > 3000 nM | – |
| CCCn1cc2c(C3C(=O)Nc4ccc(Br)cc43)nc(NCCc3cccnc3)nc2n1 (stereo not drawn) [Example 189, 5-Bromo-3-[2-propyl-6-(2-pyridin-3-yl-ethylamino)-2H-pyrazolo [3,4-d]pyrimidin-4-yl]-1,3-dihydro-indol-2-one] | < 300 nM | < 300 nM | 294 to 297 °C | – | – | – |
| CCCn1cc2c(C3C(=O)Nc4ccc(Br)cc43)nc(NCCN(C)C)nc2n1 (stereo not drawn) [Example 197, 5-Bromo-3-[6-(2-dimethylamino-ethylamino)-2-propyl-2H-pyrazolo[3,4-d]pyrimidin-4-yl]-1,3-dihydro-indol-2-one] | < 300 nM | < 300 nM | 270 to 274 °C | – | – | – |
| O=C1Nc2ccc([N+](=O)[O-])cc2C1c1ncnc2nn(C3CCCCC3)cc12 (stereo not drawn) [Example 49, 3-(2-Cyclohexyl-2H-pyrazolo[3,4-d]pyrimidin-4-yl)-5-nitro-1,3-dihydroindol-2-one] | < 300 nM | < 300 nM | 301 to 304 °C | – | – | – |
| N#Cc1ccc2c(c1)NC(=O)C2c1ncnc2c1cnn2C1CCCCC1 (stereo not drawn) [Example 69, 3-(1-Cyclohexyl-1H-pyrazolo[3,4-d]pyrimidin-4-yl)-2-oxo-2,3-dihydro-1H-indole-6-carbonitrile] | – | > 10000 nM | > 300 °C | > 3000 nM | – | – |
| COCCNc1nc(C2C(=O)Nc3ccc(Br)cc32)c2cn(CCOC)nc2n1 (stereo not drawn) [Example 235, 5-Bromo-3-[2-(2-methoxy-ethyl)-6-(2-methoxy-ethylamino)-2H-pyrazolo [3,4-d]pyrimidin-4-yl]-1,3-dihydro-indol-2-one] | < 300 nM | < 300 nM | > 300 °C | – | – | – |
| CC(C)Nc1nc(C2C(=O)Nc3ccc(C#N)cc32)c2cn(C3CCCC3)nc2n1 (stereo not drawn) [Example 150, 3-(2-cyclopentyl-6-isopropylamino-2H-pyrazolo [3,4-d]pyrimidin-4-yl)-2-oxo-2,3-dihydro-1H-indole-5-carbonitrile] | – | < 300 nM | > 300 °C | – | – | 76% |
| CCCn1cc2c(C3C(=O)Nc4ccc(F)cc43)ncnc2n1 (stereo not drawn) [Example 100] | < 300 nM | 300 to 3000 nM | 288 to 292 °C | – | – | – |
| O=C1Nc2ccc(Cl)cc2C1c1nc(NCCc2cccnc2)nc2nn(C3CCCC3)cc12 (stereo not drawn) [Example 279, 5-Chloro-3-[2-cyclopentyl-6-(2-pyridin-3-yl-ethylamino)-2H-pyrazolo[3,4-d]pyrimidin-4-yl]-1,3-dihydro-indol-2-one] | 300 to 3000 nM | < 300 nM | 277 to 281 °C | – | – | – |
| CCOCCn1cc2c(C3C(=O)Nc4ccc(Br)cc43)nc(NC[C@H](C)O)nc2n1 (stereo partly drawn) [Example 238, 5-Bromo-3-[2-(2-ethoxy-ethyl)-6-((S)-2-hydroxy-propylamno)-2H-pyrazolo[3,4-d]pyrimidin-4-yl]-1,3-dihydro-indol-2-one] | < 300 nM | < 300 nM | 297 to 299 °C | – | – | – |

Continued, values first:

| IC50 ([1]; class symbols) | IC50 ([2]; class symbols) | melting point | IC50 ([1]; numeric bounds) | IC50 ([2]; numeric bounds) | inhibition at 10 µM [1] | Structure (SMILES) |
| --- | --- | --- | --- | --- | --- | --- |
| < 300 nM | < 300 nM | 294 to 296.8 °C | – | – | – | COCCNc1nc(C2C(=O)Nc3ccc(Br)cc32)c2cn(CC(C)C)nc2n1 (stereo not drawn) [Example 263, 5-Bromo-3-[2-isobutyl-6-(2-methoxy-ethylamino)-2H-pyrazolo[3,4-d]pyrimidin-4-yl]-1,3-dihydro-indol-2-one] |
| < 300 nM | < 300 nM | 240 to 259 °C | – | – | – | CNCCCNc1nc(C2C(=O)Nc3ccc(Br)cc32)c2cn(CC(C)C)nc2n1 (stereo not drawn) [Example 267, 5-Bromo-3-[2-isobutyl-6-(3-methylamino-propylamino)-2H-pyrazolo[3,4-d]pyrimidin-4-yl]-1,3-dihydro-indol-2-one] |
| – | < 300 nM | 208 to 211 °C | > 3000 nM | – | – | CNCCCNc1nc(C2C(=O)Nc3ccc(Br)cc32)c2cn(C3CCCC3)nc2n1.Cl (stereo not drawn) [Example 379, 5-Bromo-3-[2-cyclopentyl-6-(3-methylamino-propylamino)-2H-pyrazolo[3,4-d]pyrimidin-4-yl]-1,3-dihydro-indol-2-one hydrochloride salt] |
| > 10000 nM | < 300 nM | > 300 °C | – | – | – | COCCn1cc2c(C3C(=O)Nc4ccc(Br)cc43)nc(Cl)nc2n1 (stereo not drawn) [Example 225, 5-Bromo-3-[6-chloro-2-(2-methoxy-ethyl)-2H-pyrazolo [3,4-d]pyrimidin-4-yl]-1,3-dihydro-indol-2-one] |
| – | < 300 nM | > 300 °C | – | – | 62% | C[C@@H](O)CNc1nc(C2C(=O)Nc3ccc(Cl)cc32)c2cn(C3CCCC3)nc2n1 (stereo partly drawn) [Example 375] |
| < 300 nM | < 300 nM | 298 to 303 °C | – | – | – | CCCn1cc2c(C3C(=O)Nc4ccc(Br)cc43)nc(NCCCN3CCOCC3)nc2n1 (stereo not drawn) [Example 203, 5-Bromo-3-[6-(3-morpholin-4-yl-propylamino)-2-propyl-2H-pyrazolo [3,4-d]pyrimidin-4-yl]-1,3-dihydro-indol-2-one] |
| < 300 nM | < 300 nM | > 300 °C | – | – | – | CCOCCn1cc2c(C3C(=O)Nc4ccc(Cl)cc43)nc(NC[C@@H](C)O)nc2n1 (stereo partly drawn) [Example 218, 5-Chloro-3-[2-(2-ethoxy-ethyl)-6-((R)-2-hydroxy-propylamino)-2H-pyrazolo[3,4-d]pyrimidin-4-yl]-1,3-dihydro-indol-2-one] |
| < 300 nM | < 300 nM | 263 to 265.5 °C | – | – | – | CC(C)Cn1cc2c(C3C(=O)Nc4ccc(Cl)cc43)nc(NCCCN3CCOCC3)nc2n1 (stereo not drawn) [Example 271, 5-Chloro-3-[2-isobutyl-6-(3-morpholin-4-yl-propylamino)-2H-pyrazolo[3,4-d]pyrimidin-4-yl]-1,3-dihydro-indol-2-one] |
| – | < 300 nM | > 300 °C | – | – | 68% | O=C1Nc2ccc(C(F)(F)F)cc2C1c1nc(NCc2cccnc2)nc2nn(C3CCCC3)cc12 (stereo not drawn) [Example 161, 3-{2-cyclopentyl-6-[(pyridin-3-ylmethyl)-amino]-2H-pyrazolo [3,4-d]pyrimidin-4-yl}-5-trifluoromethyl-1,3-dihydro-indol-2-one] |
| < 300 nM | < 300 nM | > 300 °C | – | – | – | CCCn1cc2c(C3C(=O)Nc4ccc(Br)cc43)ncnc2n1 (stereo not drawn) [Example 97, 5-Bromo-3-(2-propyl-2H-pyrazolo[3,4-d]pyrimidin-4-yl)-1,3-dihydro-indol-2-one] |
| < 300 nM | < 300 nM | > 300 °C | – | – | – | CCCn1cc2c(C3C(=O)Nc4ccc(Br)cc43)nc(NCc3ccncc3)nc2n1 (stereo not drawn) [Example 190, 5-Bromo-3-{2-propyl-6-[(pyridine-4-ylmethyl)-amino]-2H-pyrazolo[3,4-d]pyrimidin-4-yl}-1,3-dihydro-indol-2-one] |
